Test results taken from patent US20040048870A1, “Composition for the prevention and treatment of migraine headaches” (priority 2002, published 2004).

Experiments:
migraine headaches = experiment: patient history of earlier medication (headache questionnaire prior to institution of therapy); format: in vivo, human; conditions: before therapy; for success and side effects of earlier medication: Example 2 patient; for relief of acute pain by abortive agent: Example 1 patient
Text: There were no accompanying autonomic symptoms. […] The patient was not exposed to xanthines.

migraine [1] = conditions: 600 mg magnesium orally versus placebo; cited from earlier work
[2] = tested on: headaches in patients with low serum levels of ionized magnesium; conditions: intravenous infusion of one gram of magnesium; cited from earlier work
migraine [3] = conditions: 400 mg oral riboflavin once a day; at four months; cited from earlier work

With CCOC(=O)C1(c2ccccc2)CCN(C)CC1 [Demerol] the “success and side effects of earlier medication” value (migraine headaches) was “varying success with varying side effects”.

For CNS(=O)(=O)Cc1ccc2[nH]cc(CCN(C)C)c2c1 [Imitrex], the “success and side effects of earlier medication” value (migraine headaches) was “varying success with varying side effects”.

For CC(=O)Nc1ccc(O)cc1 [acetaminophen], the “relief of acute pain by abortive agent” value (migraine headaches) was “some, but incomplete, relief”.

For CC(=O)Oc1ccccc1C(=O)O [aspirin], the “relief of acute pain by abortive agent” value (migraine headaches) was “some, but incomplete, relief”.

In the case of CC(C)Cc1ccc(C(C)C(=O)O)cc1 (stereo not shown) [ibuprofen], the “relief of acute pain by abortive agent” value (migraine headaches) was “some, but incomplete, relief”.

In the case of [Mg+2] [magnesium], the “duration of the attacks” value (migraine [1]) is listed as “decreased in the magnesium group, but not significantly”, the frequency of attacks (migraine [1]) is listed as “significant reduction” and the “intensity of the attacks” value (migraine [1]) is listed as “decreased in the magnesium group, but not significantly”. For the same molecule, the headache relief [2] was “relieved headaches”.

For Cc1cc2nc3c(=O)[nH]c(=O)nc-3n(C[C@H](O)[C@H](O)[C@H](O)CO)c2cc1C [riboflavin, Riboflavin], the “number of days the patients experienced migraine attacks” value (migraine [3]) is listed as “statistically significant decrease”.
